Measured values reported in patent US20060135551A1, “Novel heterocyclic compounds and their pharmaceutical compositions” (priority 2004, published 2006).

Target: T1, Recombinant CETP enzyme (Homo sapiens, UniProt P11597)
T1 construct: purchased Cardiovascular Targets
T1 sequence (P11597 18-493): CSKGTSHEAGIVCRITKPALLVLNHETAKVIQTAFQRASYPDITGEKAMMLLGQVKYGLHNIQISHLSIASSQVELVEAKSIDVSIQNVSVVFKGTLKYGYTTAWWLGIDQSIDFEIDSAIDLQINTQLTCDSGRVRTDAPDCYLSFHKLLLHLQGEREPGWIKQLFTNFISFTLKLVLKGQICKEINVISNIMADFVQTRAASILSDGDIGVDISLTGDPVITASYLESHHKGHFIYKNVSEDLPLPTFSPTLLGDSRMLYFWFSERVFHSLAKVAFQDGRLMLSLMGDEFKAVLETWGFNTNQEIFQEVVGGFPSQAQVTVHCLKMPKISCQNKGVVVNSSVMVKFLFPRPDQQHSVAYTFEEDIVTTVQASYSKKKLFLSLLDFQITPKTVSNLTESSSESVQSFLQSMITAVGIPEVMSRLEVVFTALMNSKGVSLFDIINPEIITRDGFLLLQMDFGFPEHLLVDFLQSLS
Test: In vitro fluorescence-based CETP inhibition assay (BODIPY-CE transfer from donor to acceptor microemulsions)
Format: biochemical
Settings: recombinant CETP 0.14 ng/μl; transfer of fluorescent cholesteryl ester monitored over 2 hours; compared to DMSO controls
Protocol: An in vitro fluorescence-based assay to identify CETP inhibitors was developed from modifications of the protocols outlined in Bisgaier et al., J Lipid Res., 34(9): 1625-34 (1993) and Epps et al., Chem Phys Lipids., 77(1): 51-63 (1995). Acceptor and donor lipid microemulsions were prepared according to Bisgaier et al., 1993, except that the buffer was prepared with 0.67 ug/ml human HDL (Calbiochem). Donor microemulsions contained the fluorescent cholesteryl ester analog BODIPY-CE (Molecular Probes), characterized by excitation and emission maxima at 503 nm and 518 nm, respectively. The CETP-mediated transfer of fluorescent cholesteryl ester to acceptor particles was monitored over a 2-hour time period using the FAM filter set (excitation 492 nm, emission 516 nm) in an MX3000P fluorescent plate reader (Stratagene). Recombinant CETP enzyme (Cardiovascular Targets) was used at 0.14 ng/μl, final concentration, to achieve lipid transfer. CETP inhibition by compounds was compared to DMSO controls and graphed as a percentage of the control CETP activity over 2 hours. The IC50 curves for CETP inhibition were generated from the activity profiles. Active compounds were also tested for CETP inhibition as above, but in the presence of 3% human serum albumin, fraction V (Calbiochem).
Using this protocol, IC50 data for CETP inhibition were obtained.

- IC50: 4.6 µM
SMILES: CCOC(=O)N1c2c(c(C)nn2C)C(N(Cc2cc(C(F)(F)F)cc(C(F)(F)F)c2)C(=O)OC)CC1CC (stereo not shown) [Example E1, 4-[(3,5-Bis-trifluoromethyl-benzyl)-methoxycarbonyl-amino]-6-ethyl-1,3-dimethyl-1,4,5,6-tetrahydro-pyrazolo[3,4-b]pyridine-7-carboxylic acid ethyl ester]
